From publication PMC9653339, “Revisiting the anticancer properties of phosphane(9-ribosylpurine-6-thiolato)gold(I) complexes and their 9H-purine precursors” (Journal of Biological Inorganic Chemistry, 2022)

Experiments:
[1] = system: 518A2 melanoma cells; experiment: ROS assay (NBT); assay type: cell-based, human; details: 518A2 cells, 1 µM and 5 µM, 24 h
Procedure: To determine cellular ROS levels, 2,2′-bis(4-nitrophenyl)-5,5′-diphenyl-3,3′-(3,3′-dimethoxy-4,4′-diphenylene) di-tetrazolium chloride (NBT) was used. The assay is based on the reduction of a yellow NBT tetrazolium salt to a blue formazan dye. 518A2 melanoma cells were seeded in 96-well flat bottom microtiter plates (Sarstedt) with 100 µL per well and a cell density of 0.1 × 10^6 cells per mL. The cells were allowed to grow overnight, followed by substance treatment with 11.1 µL of tenfold concentrated test compound dilutions and further incubated for 24 h. Then plates were centrifuged, the medium was discarded and 50 µL per well of NBT solution (0.1% in PBS) was added. The plates were further incubated for 4 h, centrifuged again and the medium was discarded. After that, 50 µL of 2M KOH solution and 65 µL DMSO had been added per well, incubation was continued for 30 min. The absorbances at 630 nm und 405 nm were measured, using a plate reader (Tecan). The background absorbance (405 nm) was subtracted from the formazan signal (630 nm). The resulting absorbance is directly proportional to the reactive oxygen species level. The control value was normalized to 100% ROS level, and accordingly, the viability of cells treated with test compounds was calculated. Means and SD were calculated from at least four independent experiments.

[2] = system: HCT-116^p53−/− (p53 knockout mutant) colon carcinoma cells; design: method as in Bär et al. [33]; details: MTT, value marked * ref Bär et al. [33]; cited from earlier work
[3] = system: HCT-116^wt colon carcinoma cells; design: method as in Bär et al. [33]; details: MTT, value marked * ref Bär et al. [33]; cited from earlier work
[4] = system: HeLa cervix carcinoma cells; design: method as in Bär et al. [33]; details: MTT, value marked * ref Bär et al. [33]; cited from earlier work
[5] = system: human adult dermal fibroblasts HDFa; design: method as in Bär et al. [33]; details: MTT, value marked * ref Bär et al. [33]; cited from earlier work
[6] = system: 518A2 melanoma cells; experiment: Comet assay; assay type: cell-based, human; details: 518A2 cells, 3.3 µM and 33 µM
Procedure: 518A2 melanoma cells were seeded at a concentration of 0.03 × 10^6 cells/mL and a volume of 2 mL seeded in 6-well plates and incubated overnight (37 °C, 95% humidity, 5% CO2). In addition, slides were coated with 1.5% agarose and allowed to harden before being stored in a moist place until the next day. On the second day, a 100-fold substance pre-dilution was added to the cells followed by a further incubation of 3–5 h. The selected concentration range was based on Mendonça et al.. Subsequently, the cells were harvested with trypsin and the cell number was adjusted to 0.02 × 10^6 cells/mL. 0.5% agarose solution was prepared and tempered to a maximum of 50 °C. After mixing 0.4 mL of cell suspension with 1.2 mL of tempered agarose, 200 µL was pipetted onto each of the previously coated slides. After these had hardened, a one-hour incubation followed at 4 °C in lysis buffer. The samples were then electrophoresed at 11 V for 20 min and then incubated for 15 min in neutralization buffer. Finally, the DNA was stained with 30 µL each of 1% ethidium bromide for 30 min, before the slides were washed with PBS for subsequent documentation under a fluorescent microscope with UV excitation (Zeiss Axiovert 135, Ex/Em 300 nm/605 nm).

[7] = system: circular plasmid pBR322 DNA; experiment: Electrophoretic mobility shift assay (EMSA); assay type: binding
Procedure: To distinguish whether the DNA interaction is of an electrostatic or covalent nature, a second DNA interaction assay was conducted. 1.5 µg of circular plasmid pBR322 DNA were incubated in TE buffer (10 mM Tris–Cl, 1 mM EDTA, pH 8.0) with different concentrations of test compounds (final concentrations; 5 µM, 10 µM, 25 µM and 50 µM), whereas a corresponding volume of DMSO was added to the control (0 µM) to a final volume of 20 µL of each sample. Samples ware incubated for 16 h at 37 °C and subjected to 1% agarose gel electrophoresis in 0.5 × TBE buffer (45 mM Tris–Cl, 45 mM boric acid, 1.25 mM EDTA, pH 8.0) for 4 h at 66 V. Afterward, the agarose gel was stained for 20 min with EtdBr (10 µg/mL in 0.5 TBE buffer) solution and the result documented using UV excitation.

[8] = system: linear salmon sperm DNA; experiment: Ethidium bromide saturation assay; assay type: binding
Procedure: The interaction of the complexes with linear DNA was assessed using the EtdBr assay. Ethidium bromide intercalates into DNA enhancing its fluorescence, while intercalation is hindered by alterations of the DNA structure e.g., by small molecules interfering with DNA [17]. In wells of a 96-well black flat bottom microtiter plates a solution of 1 µg linear salmon sperm DNA (ThermoFisher) in TE buffer (10 mM Tris–Cl, 1 mM EDTA, pH 8.0) was treated with concentration series (final concentrations; 25 µM, 50 µM, 75 µM and 100 µM) of the compounds, a corresponding amount of DMSO was used as a control (0 µM). After an incubation period of 2 h at 37 °C, 100 µL per well of ethidium bromide solution (10 µg/mL in TE buffer) was added and the plate was incubated for 5 min in the dark. Background samples were prepared analogously but without DNA addition. EtdBr–DNA adduct fluorescence was monitored at an excitation wavelength of 535 nm and an emission wavelength of 595 nm. After background subtraction, changes in fluorescence intensity were calculated in relation to control (set to 100%). Means and SD were calculated from at least three independent experiments.

Structure (SMILES)	Intracellular ROS level [1]	IC50 [2] [µM]	IC50 [3] [µM]	IC50 [4] [µM]	IC50 [5] [µM]	DNA damage (comet assay) [6]	DNA interaction (EMSA) [7]	DNA interaction (ethidium bromide saturation) [8]
CC(=O)OC[C@H]1O[C@@H]([S-])[C@H](OC(C)=O)[C@@H](OC(C)=O)[C@@H]1OC(C)=O.CCP(CC)CC.[Au+] [Auranofin, auranofin]	highest ROS levels	5 ± 0.2	11.9 ± 0.4	2.6 ± 0.4	14 ± 1			
OC[C@H]1O[C@@H](n2cnc3c([S][Au][PH](c4ccccc4)(c4ccccc4)c4ccccc4)ncnc32)[C@H](O)[C@@H]1O [Complex 5, (1,7-Dihydro-6H-purine-9-β-D-ribofuranosyl-6-thiolato) (triphenylphosphane) gold(I)]						led to DNA damage	failed to reveal any positive effects	failed to reveal any positive effects
